“Also recorded” adds a separate entry of the source.
Experiments:
Type in all cases: in vivo, mouse
male CD-1 mice [1] = assay: Rotarod test, SG-fed mice; conditions: SG-fed vs control, duration of study
Excerpt: (§1) Five-month old male CD-1 mice (30.1-35.7 g, 7.5 cm-8.8 cm) were purchased from Charles River (Wilmington, Mass.). Adult mice were chosen to mimic the mean age of onset of ALS-PDC (Kurland, L. T. (1988a) Trends Neurosci. 11, 51-4; Kurland, L. T., et al. (1994) Amyotrophic lateral sclerosis-parkinsonism-dementia complex on Guam: epidemiologic and etiological perspectives. 109-131). Thirty mice for the SG study were randomly divided into 2 groups (14 control and 16 experimental animals). All animals were housed singly in a virus-free barrier facility in a room maintained at 22° C. under a 12 hour light/dark cycle. The mice were provided ad libitum access to food and water.
The synthetic SG was mixed with finely ground Purina Chow mouse pellets (Mouse Diet™, Purina) to create the experimental pellets with a SG content of 1000 μg per pellet. Dry materials were blended with a sterile silicon spatula. For every 5 g of standard feed, 2.5 mL of doubly-distilled water (dd)H2O was added and the dough was kneaded and round up into pellets. A single sterol glucoside containing pellet was placed in the feeding tray each morning before the addition of regular mouse chow (ad libitum). All experimental pellets were entirely consumed by the mice each day. […] SG feeding was conducted daily for 15 weeks and mice were behaviorally monitored until sacrifice at 35 weeks (time point 1) or 52 weeks (time point 2). […]

male CD-1 mice [2] = assay: Gait analysis (Digigait), SG-fed mice; conditions: SG-fed vs control
Excerpt: as §1
(§2) The synthetic SG was mixed with finely ground Purina Chow mouse pellets (Mouse Diet™, Purina) to create the experimental pellets with a SG content of 1000 μg per pellet. Dry materials were blended with a sterile silicon spatula. For every 5 g of standard feed, 2.5 mL of doubly-distilled water (dd)H2O was added and the dough was kneaded and round up into pellets. A single sterol glucoside containing pellet was placed in the feeding tray each morning before the addition of regular mouse chow (ad libitum). All experimental pellets were entirely consumed by the mice each day. Control mice were fed standard mouse chow pellets of identical weight with no additives. SG feeding was conducted daily for 15 weeks and mice were behaviorally monitored until sacrifice at 35 weeks (time point 1) or 52 weeks (time point 2).
Gait analysis: In order to examine spatial and temporal indices of front and hind limb stepping patterns during forward locomotion, mice were required to run on a colorless (PVC and polycarbonate), straight, level, walled motorized belt (Digigait™, treadmill motor: DC, HP; torque 451b-in, Mouse Specifics, Inc., Boston, Mass., USA) set at 30 rpm with a no-flicker light source (90-250 VAC; 25 kHZ, Mouse Specifics, Inc., Boston, Mass., USA) and camera mounted ventrally (relative to the animal) to facilitate continuous ventral plane videography (up to 150 frames per second) of activity. Gait indices were analyzed with the complementary digital imaging software (Digigait™, Mouse Specifics, Inc., Boston, Mass., USA) as per manufacturer's instructions. Briefly, the software converts “paw prints” into a digital signal and generates a temporal record of paw placement and breaks down the digital file into three main parameters: stride duration, swing duration, and stance duration. The stance duration is the period during which the paw of a limb is in contact with the belt surface. The software further subdivides the stance duration into two components: braking duration (the increase in paw contact area over a discrete time interval) and propulsion duration (the decrease in paw contact area over a discrete time interval). The swing duration is the period of time that a paw is not in contact with the belt surface. In addition to these factors, over a dozen additional characteristics, including stance factor, step-sequence pattern, propulsion, and cadence are generated to provide a spreadsheet format report of twenty-five gait indices.

male CD-1 mice [3] = assay: Open field monitoring, SG-fed mice; conditions: SG-fed vs control
Excerpt: as §1, §2
Open field monitoring: Spontaneous activity in an open field is considered one of the most standardized general measures of motor function (Crawley, 2000). The open field test can also reveal stress response in animals (i.e. defensive burying or thigmotaxis) (Karl et al., Exp Toxicol Pathol., 2003, 55(1):69-83). Open field testing of each animal was conducted every two weeks. A single mouse was placed in one of four round open field arena/tubs (approximately 1 m diameter) to permit the testing of four animals per 5 minute trial. […] This in turn, increases the likelihood of detection of fear-based behavior (Crawley, 2000) and minimizes habituation of the animal to the open field (Crawley, 2000). Testing arenas were cleaned with 70% ethanol before the testing of each animal and with quatricide at the end of each testing session. Movements were recorded using a video camera mounted on the ceiling. Video clips were reviewed and were manually scored or automatically analysed on an automated video tracking software (Ethovision® 3.1, Noldus Information Technologies Inc., Leesburg, Va., USA). Scoring was done on videotaped sessions, rather than in-person at the time of testing to avoid the introduction of confounding variables by the presence of an observer in close proximity to the mice (Crawley, 2000).

For `CC[C@H](/C=C/[C@@H](C)[C@H]1CC[C@H]2[C@@H]3CC=C4C[C@@H](O[C@@H]5O[C@H](CO)[C@@H](O)[C@H](O)[C@H]5O)CC[C@]4(C)[C@H]3CC[C@]12C)C(C)C` [SG, Stigmasterol β-D-Glucopyranoside], the “Rotarod performance (time without fall)” value (male CD-1 mice [1]) was “decrease in the time without fall; also recorded: trend of diminished performance”, the Forelimb braking (male CD-1 mice [2]; Time-point 1 (35 wk)) was “Forelimb braking (ns)” and the Forelimb propulsion (male CD-1 mice [2]; Time-point 1 (35 wk)) was “Forelimb propulsion (ns)”. The Forelimb stance width (male CD-1 mice [2]; Time-point 1 (35 wk)) was “Forelimb stance width (ns)”, the Forelimb stride length (male CD-1 mice [2]; Time-point 1 (35 wk)) was “Forelimb stride length (ns)” and the Hind limb braking (male CD-1 mice [2]; Time-point 1 (35 wk)) was “Hind limb braking (ns)”. The Hind limb propulsion (male CD-1 mice [2]; Time-point 1 (35 wk)) was “Hind limb propulsion (ns)”, the “Hind limb stance width” value (male CD-1 mice [2]; Time-point 1 (35 wk)) was “Hind limb stance width (ns)” and the “Hind limb stride frequency” value (male CD-1 mice [2]; Time-point 1 (35 wk)) was “Hind limb stride frequency (ns)”. For the same compound, the “Hind limb stride length” value (male CD-1 mice [2]; Time-point 1 (35 wk)) was “Hind limb stride length (ns)”, the Forelimb braking (male CD-1 mice [2]; Time-point 2 (52 wk)) was “Forelimb braking* (*p < 0.05)” and the Forelimb propulsion (male CD-1 mice [2]; Time-point 2 (52 wk)) was “Forelimb propulsion* (*p < 0.05)”. For the same compound, the Hind limb braking (male CD-1 mice [2]; Time-point 2 (52 wk)) was “Hind limb braking* (*p < 0.05)”, the Hind limb propulsion (male CD-1 mice [2]; Time-point 2 (52 wk)) was “Hind limb propulsion* (*p < 0.05)” and the “Hind limb stride frequency” value (male CD-1 mice [2]; Time-point 2 (52 wk)) was “Hind limb stride frequency* (*p < 0.05)”. The Total distance moved (male CD-1 mice [3]; Time-point 1 (35 wk)) was “Total distance moved (ns)”, the “Total distance to zone border” value (male CD-1 mice [3]; Time-point 1 (35 wk)) was “Total distance to zone border (ns)” and the Total turn angle (male CD-1 mice [3]; Time-point 1 (35 wk)) was “Total turn angle (ns)”. The “Total distance to zone border” value (male CD-1 mice [3]; Time-point 2 (52 wk)) was “Total distance to zone border* (*p < 0.05)”.

From US9573972B2, “Nurotoxic sterol glycosides” (priority 2008, dated 2017)
